Test results: US5414001A, “Antineoplastic pyrrolo[4,3,2-de]quinolin-8(1H)-ones” (American Cyanamid Company, priority 1993, dated 1995)
Values after ≈ are worked out from the molar mass of the structure shown. Values joined by “and” are separate entries in the source; they are usually repeats but may differ in a detail not shown here. Identical values can stand only once. Counter-ions that a name gives are not always drawn. Like-named read-outs stand apart in the source and are kept apart here.

How the values were obtained:
[1] = tested on: panel of >20 human tumor cell lines; assay: In vitro tumor panel evaluation, Sulforhodamine B (SRB) cytotoxicity assay; assay type: cell-based; conditions: for IC50: Homo sapiens
[2] = tested on: DDP (Cisplatin resistant ovarian carcinoma cell line) / S (A2780); assay: SRB cytotoxicity ratio DDP/S (cisplatin resistance); assay type: cell-based, human
MIP / SW620 = assay: SRB cytotoxicity ratio MIP/SW620 (MDR, P-glycoprotein resistance); assay type: cell-based, human; conditions: 2880 min
HCT15 / SKBR3 = assay: SRB cytotoxicity ratio HCT15/SKBR3 (topoisomerase resistance); assay type: cell-based, human; conditions: 2880 min
CaCo2 / CX1 [3] = assay: SRB cytotoxicity ratio CaCo2/CX1 (growth kinetics); conditions: IC50 resistant / IC50 sensitive cell line, 2880 min
Method: (§4) The cytotoxic activity of the pyrrolo[4,3,2-de]quinolin-8(1H)-ones against a panel of >20 human tumor cell lines is determined using the Sulforhodamine B protein dye-binding colorimetric cytotoxicity assay (SRB) described by Skehan et al. (Journal National Cancer Institute 82:1107-1112, 1990), as modified by Monks et al., (Journal National Cancer Institute 83: 757-766, 1991). […] Positive controls (i.e., etoposide) are included in every experiment. Treatments are for 48 hours, after which cells are fixed in 10% trichloroacetic acid (10% final concentration), washed five times with deionized water and stained with SRB solution (0.4% in glacial acetic acid). Protein-bound stain is solubilized with 0.1 ml tris buffer and the adsorbance values are recorded with a microplate reader. Duplicate plates of cells are fixed with trichloroacetic acid at the time of drug addition to establish To values, as described by Monks et al. (JNCl, 83: 757-766, 1991). The effect of drug treatments over the five-long range of concentrations is calculated using the formula, T--To/C--To, to determine the IC50 values.
(§5) 3) The ratio values for DDP/S; CaCo2/CX1; MIP/SW620, and; HCT15/SKBR3 refer to the IC50 value for resistant cell lines included in the tumor cell panel, divided by the IC50 value for corresponding drug sensitive cell lines. For example, DDP is a Cisplatin resistant ovarian carcinoma cell line, and S is the corresponding parent drug sensitive ovarian carcinoma cell line (A2780). […] CaCo2 is a slow growing non P-glycoprotein multidrug resistant colon carcinoma cell line. MIP is a colon carcinoma cell line that expresses P-glycoprotein and is multidrug resistant; SW620 is a drug sensitive colon carcinoma cell line. HCT15 is a colon carcinoma cell line that is resistant to topoisomerase inhibitors and SKBR3 is a breast carcinoma that is very sensitive to topoisomerase inhibitors.

[4] = tested on: Ovcar3 human ovarian carcinoma; design: species or system human tumor in Balb/C nu/nu athymic mice; conditions: in vivo
CaCo2 / CX1 [5] = conditions: human, Caco-2, 48 h
Method: as §4, §5

S. aureus 375 = assay: Antibacterial agar diffusion assay; assay type: cell-based; conditions: H = hazy zones
S. aureus meth r 310 = assay: Antibacterial agar diffusion assay; assay type: cell-based; conditions: H = hazy zones
E. faecium 379 = assay: Antibacterial agar diffusion assay; assay type: cell-based; conditions: H = hazy zones
Method: (§1) One hundred fifty milliliters of agar medium are seeded with 1 ml of diluted culture and aseptically poured into 9 inch×9 inch Nunc bioassay plates. The twenty-five microliters of the test sample dissolved in DMSO are placed in 5.5 mmwells that are cut into agar layer which has been pre-seeded with the test bacterial strains. The plates are incubated at 37° C. for 18-24 hours. Zones of inhibition are recorded.
(§2) ALL SAMPLES IN 20% DMSO
(§3) AGAR DIFFUSION ASSAY 25 microliter sample in 5.5 mm well

S. aureus cipro r 400 = assay: Antibacterial agar diffusion assay; assay type: cell-based; conditions: 64 microgram/ml; H = hazy zones
Method: as §1, §2, §3

E. coli 300 = assay: Antibacterial agar diffusion assay; assay type: cell-based; design: concentration or dose not given beside the values
BR513 = assay type: cell-based
B. subtilis 17 = assay: Antibacterial agar diffusion assay; assay type: cell-based; conditions: H = hazy zones
K. pneumoniae 53 = assay: Antibacterial agar diffusion assay; assay type: cell-based; conditions: H = hazy zones
C. freundii 395 = assay: Antibacterial agar diffusion assay; assay type: cell-based; conditions: 1000 microgram/ml; H = hazy zones
P388 murine leukemia = tested on: P388 murine leukemia; design: species or system murine (mice); conditions: mouse, in vivo
[6] = Mean IC50 value for all 20 cell lines, 48 hours, read-out: AVG IC50
[7] = least sensitive cell line, 48 hours, read-out: MAX IC50
[8] = most sensitive cell line, 48 hours, read-out: MIN IC50
[9] = IC50 resistant / IC50 sensitive cell line, cisplatin resistance, 2880 min
[10] = IC50 resistant / IC50 sensitive cell line, MDR (pglycoprotein) resistance
[11] = IC50 resistant / IC50 sensitive cell line, topoisomerase resistance
[12] = human, ddp/s ovarian carcinoma cells, 2880 min

Row | Molecule | IC50 [1, 6] [mg/L] | IC50 [1, 7] [mg/L] | IC50 [1, 8] [mg/L] | DDP/S IC50 ratio [2, 9] | MIP/SW620 IC50 ratio (MIP / SW620; [10]) | HCT15/SKBR3 IC50 ratio (HCT15 / SKBR3; [11]) | CaCO2/CX1 IC50 ratio (CaCo2 / CX1 [5]) | other results
1 | Cn1cc2ccnc3c2c1C(=O)C(N)=C3.O=C(O)C(F)(F)F [Example 2, 7-amino-1-methyl-pyrrolo[4,3,2-de]quinolin-8(1H)-one trifluoroacetate] | 18 | 25.1 | 2.03 | 1.0 | 0.9 | 6.7 | – | CaCO2/CX1 IC50 ratio (CaCo2 / CX1 [3]): 0.6
2 | COc1cc([C@@H]2c3cc4c(cc3[C@@H](O[C@@H]3O[C@@H]5CO[C@@H](C)O[C@H]5[C@H](O)[C@H]3O)[C@H]3COC(=O)[C@H]23)OCO4)cc(OC)c1O [Etoposide, etoposide, reference compound] | – | – | – | – | – | – | 4.2 | IC50 ([1]; 48 h, read-out: AVG IC50): 8.7 mg/L (≈ 14.8 µM); IC50 ([1]; 48 h, read-out: MAX IC50): 27.9 mg/L (≈ 47.4 µM); IC50 ([1]; 48 h, read-out: MIN IC50): 0.12 mg/L (≈ 0.204 µM); cross resistance in the cisplatin resistant cell line DDP [2]: cross resistant; DDP/S IC50 ratio [2, 12]: 53.0; IC50 value of DDP higher than the parent cell line [2, 12]: 53 fold; MIP/SW620 IC50 ratio (MIP / SW620; human, mip/sw620 cells): 1.9; HCT15/SKBR3 IC50 ratio (HCT15 / SKBR3; human, hct15/skbr3 cells): 22.3; HCT15 more resistant than SKBR3 (HCT15 / SKBR3; human, hct15/skbr3 cells): 22 fold; Ovcar3 Min T/C % [4]: 62%
3 | O=C1C(NC2Cc3cc(Br)c(O)cc3S2)=CC2=NCCc3c[nH]c1c32 (centres unmarked) [Example 6, trifluoroacetate] | – | – | – | 1.8 | – | – | 6.3 | more potent than the reference topoisomerase inhibitor, etoposide [1]: 1 log; MIP/SW620 IC50 ratio (MIP / SW620; human, mip/sw620 cells): 5.1; HCT15/SKBR3 IC50 ratio (HCT15 / SKBR3; human, hct15/skbr3 cells): 3.5; ZONES OF INHIBITION (S. aureus 375; 250 microgram/ml): 7H; ZONES OF INHIBITION (S. aureus meth r 310; 64 microgram/ml): 8 MM; ZONES OF INHIBITION (S. aureus meth r 310; 250 microgram/ml): 9 MM; ZONES OF INHIBITION (S. aureus meth r 310; 1000 microgram/ml): 10 MM; ZONES OF INHIBITION (E. faecium 379; 64 microgram/ml): 9H; ZONES OF INHIBITION (E. faecium 379; 250 microgram/ml): 11H; ZONES OF INHIBITION (E. faecium 379; 1000 microgram/ml): 12H; ZONES OF INHIBITION (S. aureus cipro r 400): 11H; ZONES OF INHIBITION (E. coli 300; trifluoroacetate): 12 and 11 and 9; BIA BR513 (BR513): 8T
4 | CINODINE | – | – | – | – | – | – | – | ZONES OF INHIBITION (B. subtilis 17; 64 microgram/ml): 8 MM; ZONES OF INHIBITION (B. subtilis 17; 250 microgram/ml): 11 MM; ZONES OF INHIBITION (B. subtilis 17; 1000 microgram/ml): 13 MM; ZONES OF INHIBITION (S. aureus 375; 250 microgram/ml): 7 MM; ZONES OF INHIBITION (S. aureus 375; 1000 microgram/ml): 9 MM; ZONES OF INHIBITION (S. aureus meth r 310; 1000 microgram/ml): 7 MM; ZONES OF INHIBITION (E. coli 300; 1000 microgram/ml, H = hazy zones): 9 MM; ZONES OF INHIBITION (K. pneumoniae 53; 16 microgram/ml): 8 MM; ZONES OF INHIBITION (K. pneumoniae 53; 64 microgram/ml): 10 MM; ZONES OF INHIBITION (K. pneumoniae 53; 250 microgram/ml): 12 MM; ZONES OF INHIBITION (C. freundii 395): 8H
5 | C[N+]1=C2C=C(N)C(=O)c3[nH]cc(c32)CC1 [Example 3, 7-amino-1,3,4,8-tetrahydro-5-methyl-8-oxo-pyrrolo[4,3,2-de]quinolinium trifluoroacetate] | – | – | – | – | 1.1 | 1.9 | – | IC50 ([1]; 48 h, read-out: AVG IC50): 1.7 mg/L; IC50 ([1]; 48 h, read-out: MAX IC50): 10 mg/L; IC50 ([1]; 48 h, read-out: MIN IC50): 0.06 mg/L; Ovcar3 Min T/C % [4]: 37%; P388 ILS % (P388 murine leukemia): 18%; BIA BR513 (BR513; 1000 microgram/ml, T = toxic): 8T; CaCO2/CX1 IC50 ratio (CaCo2 / CX1 [3]): 0.3
6 | CC[C@]1(O)C[C@H]2CN(CCc3c([nH]c4ccccc34)[C@@](C(=O)OC)(c3cc4c(cc3OC)N(C=O)[C@H]3[C@@](O)(C(=O)OC)[C@H](OC(C)=O)[C@]5(CC)C=CCN6CC[C@]43[C@@H]65)C2)C1 [Vincristine, reference compound] | – | – | – | – | – | – | – | Ovcar3 Min T/C % [4]: 53%; P388 ILS % (P388 murine leukemia): > 91%
7 | CNC1=CC2=[N+](C)CCc3cn(C)c(c32)C1=O [Example 30, 1,3,4,8-Tetrahydro-1,5-dimethyl-7-(methylamino)-8-oxo-pyrrolo[4,3,2-de]quinolinium trifluoroacetate] | 4.5 | 25.9 | 0.41 | 1.1 | 65.8 | 12.7 | 3.6 | –
8 | C[N+]1=C2C(Br)=C(N)C(=O)c3[nH]c(Br)c(c32)CC1 [Example 13, 7-Amino-2,6-dibromo-1,3,4,8-tetrahydro-5-methyl-8-oxo-pyrrolo[4,3,2-de]quinolinium trifluoroacetate] | 2.4 | 7.71 | 0.4 | 1.1 | 0.9 | 1.7 | 0.7 | –
9 | C[N+]1=C2C=C(N)C(=O)c3c2c(cn3Cc2cccc(Cl)c2)CC1 [Example 21, 7-Amino-1-[(3-chlorophenyl]methyl]-1,3,4,8-tetrahydro-5-methyl-8-oxo-pyrrolo[4,3,2-de]quinolinium trifluoroacetate] | 1.4 | 4.47 | 0.28 | 1.5 | 7.0 | 7.1 | 0.8 | –
10 | Cn1cc2c3c1C(=O)C(N/C=C/c1ccc(O)cc1)=CC3=NCC2.O=C(O)C(F)(F)F [Example 5, (E)-7-[[2-(4-hydroxyphenyl)ethenyl]amino]-1-methyl-3,4-dihydropyrrolo[4,3,2-de]quinolin-8(1H)-one trifluoroacetate] | 2.3 | 3.44 | 1.23 | 1.1 | 1.1 | 0.3 | – | CaCO2/CX1 IC50 ratio (CaCo2 / CX1 [3]): 1.5
11 | CN1CCc2cn(C)c3c2C1=CC(=O)C3=O [Example 52, 1,3,4,5-Tetrahydro-1,5-dimethyl-pyrrolo[4,3,2-de]quinoline-7,8-dione] | 25 (≈ 116 µM) | 50 (≈ 231 µM) | 12.3 (≈ 56.9 µM) | 1.1 | 1.5 | 2.6 | 0.8 | –
12 | C[N+]1=C2C=C(NCc3ccoc3)C(=O)c3[nH]cc(c32)CC1.O=C([O-])C(F)(F)F [Example 43, 7-[(3-Furanylmethyl)amino]-1,3,4,8-tetrahydro-5-methyl-8-oxo-pyrrolo[4,3,2-de]quinolinium trifluoroacetate] | – | – | – | 1.6 | 90.8 | 78.5 | 19.8 | AVG IC50 ([1]; Mean IC50 value for all 20 cell lines, 48 hours): 6.4 mg/L; MAX IC50 ([1]; least sensitive cell line, 48 hours): 36.3 mg/L; MIN IC50 ([1]; most sensitive cell line, 48 hours): 0.27 mg/L
13 | C[N+]1=C2C=C(NCc3ccc(O)cc3)C(=O)c3[nH]cc(c32)CC1 [Example 49, 1,3,4,8-Tetrahydro-7-[[(4-hydroxyphenyl)methyl]amino]-5-methyl-8-oxo-pyrrolo[4,3,2-de]quinolin-8 (1H)-one trifluoroacetate] | 3.3 | 13.9 | 0.92 | 1.1 | 4.2 | 15.4 | 1.0 | –
